For assay [1], the system named is non-mucous membrane skin tissues. To be noted: topical application; phenyl-epinephrine strength of at least one percent; water-based gel. The source says:
The topical applications of phenyl-epinephrine used in steps 104, 106, and 108, can include the use of a skin lotion comprising phenyl-epinephrine in solution with a strength sufficient for transdermal absorption by non-mucous membrane skin tissues. Such phenyl-epinephrine is the only active ingredient, and it is preferably compounded with a water-based gel. Such gel provides for holding the phenyl-epinephrine in contact with a user's skin for a minimal residence time sufficient to induce vasoconstriction.

Assay [2] concerns skin reddening symptoms of Rosacea and other facial skin disorders. To be noted: topical applications in a cosmetic lotion, applied as needed. From the text:
For example, using step 106 alone. Further embodiments of the present invention therefore comprise phenyl-epinephrine cosmetic skin lotion. The skin lotion is applied as needed by the user, e.g., just before going out in public.

As to `CNC[C@H](O)c1cccc(O)c1` [phenyl-epinephrine], the vasoconstriction result in assay [1] is listed as “produced the desired vasoconstriction”. In addition, the “relief of skin reddening symptoms” value in assay [2] is listed as “temporary relief of skin reddening symptoms”.
